Experiments:
mouse [1] = settings: Carcinogenicity, b6c3f1, Oral, Gavage/Intubation, dose end: 2 year, group: systemic
mouse [2] = settings: Multigenerational reproductive toxicity study, cd1, Oral, Gavage/Intubation, dose end: 2 generation
mouse [3] = settings: Subchronic oral toxicity in rodents, b6c3f1, Gavage/Intubation, dose end: 94 day, group: systemic, systemic / hematology / erythrocyte (rbc) count differential / erythrocyte (rbc) + systemic / hematology / hematocrit (hct) / hematocrit (…
mouse [4] = settings: Subchronic oral toxicity in rodents, b6c3f1, Gavage/Intubation, dose end: 14 week, group: systemic
mouse [5] = settings: Prenatal developmental toxicity study, cd1, Oral, Gavage/Intubation, dose end: 16 GD, group: developmental
mouse [6] = settings: Other (NonGuideline or Guideline Not Listed), cd1, Oral, Gavage/Intubation, dose end: 2 year, group: cannot be grouped
mouse [7] = settings: Multigenerational reproductive toxicity study, cd1, Oral, Gavage/Intubation, dose end: 1 generation
mouse [8] = settings: Prenatal developmental toxicity study, swiss albino, Oral, Gavage/Intubation, dose end: 15 GD
rat [9] = settings: Carcinogenicity, fischer, Oral, Gavage/Intubation, dose end: 103 week, group: systemic
mouse [10] = settings: Subchronic oral toxicity in rodents, b6c3f1, Gavage/Intubation, dose end: 13 week, group: systemic
rat [11] = settings: Sub-acute repeat dose toxicity, fischer, Oral, Gavage/Intubation, dose end: 16 day, group: systemic
mouse [12] = settings: Carcinogenicity; b6c3f1; Oral; Gavage/Intubation; dose end: 103 week; group: systemic; systemic / pathology microscopic / kidney / inflammation + systemic / pathology microscopic / liver / cytomegaly + systemic / pathology …
mouse [13] = settings: Sub-acute repeat dose toxicity, b6c3f1, Oral, Gavage/Intubation, dose end: 16 day, group: systemic
rat [14] = settings: Subchronic oral toxicity in rodents, fischer, Gavage/Intubation, dose end: 13 week, group: systemic, systemic / in life observation / clinical signs / lethargy + systemic / in life observation / mortality / mortality
[15] = systemic / hematology / erythrocyte (rbc) count differential / erythrocyte (rbc) + systemic / hematology / mean corpuscular (cell) volume (…
[16] = group: offspring, systemic / in life observation / body weight / offspring (pup) weight
[17] = group: parental, systemic / in life observation / body weight / body weight + systemic / in life observation / body weight / dam weight + systemic / …
[18] = group: parental, systemic / in life observation / body weight / body weight + systemic / pathology gross / sperm measure / sperm morphology + systemic / …
[19] = group: reproductive, reproductive / offspring survival early / live fetuses / live fetuses
[20] = group: reproductive, reproductive / reproductive performance / reproductive performance other / NOS + reproductive / reproductive performance / gestational …
[21] = systemic / hematology / erythrocyte (rbc) count differential / erythrocyte (rbc) + systemic / hematology / hematocrit (hct) / hematocrit (…
[22] = developmental / developmental malformation / bone / supernumerary + systemic / in life observation / body weight / fetal weight
[23] = systemic / in life observation / body weight / fetal weight
[24] = reproductive / reproductive performance / fertility / fertility + reproductive / offspring survival early / litter size / litter size + …
[25] = group: parental, systemic / hematology / leukocyte (wbc) count differential / leukocyte (wbc) + systemic / hematology / mean corpuscular (cell) volume (mcv…
[26] = group: parental, systemic / hematology / mean corpuscular (cell) volume (mcv) / mean corpuscular (cell) volume (mcv) + systemic / hematology / mean …
[27] = group: reproductive, reproductive / reproductive performance / pregnancy / pregnancy + reproductive / reproductive performance / resorptions / resorptions + …
[28] = group: developmental, systemic / in life observation / body weight / fetal weight
[29] = group: maternal, systemic / in life observation / food consumption / food consumption
[30] = systemic / pathology microscopic / kidney / hyperplasia + systemic / pathology microscopic / kidney / mineralization
[31] = systemic / pathology microscopic / kidney / hyperplasia + systemic / pathology microscopic / kidney / mineralization + systemic / pathology …
[32] = systemic / in life observation / mortality / mortality
[33] = systemic / in life observation / mortality / mortality + systemic / in life observation / body weight / body weight
[34] = systemic / in life observation / body weight / body weight
[35] = systemic / in life observation / clinical signs / lethargy
[36] = systemic / in life observation / body weight / body weight + systemic / in life observation / clinical signs / abnormal movements + systemic…

Molecule `Cc1cn([C@H]2C[C@H](N=[N+]=[N-])[C@@H](CO)O2)c(=O)[nH]c1=O` [3'-Azido-3'-deoxythymidine] has an LEL (mouse [1]; [15]) of 30 mg/kg/day, an NEL (mouse [1]; [15]) of less than 30 mg/kg/day and an LOAEL (mouse [1]; systemic / pathology microscopic / vagina / hyperplasia) of 120 mg/kg/day. The NOAEL (mouse [1]; systemic / pathology microscopic / vagina / hyperplasia + systemic / pathology microscopic / liver / adenoma/carcinoma combined + systemic…) was 60 mg/kg/day, the LEL (mouse [2]; [16]) was 200 mg/kg/day and the LOAEL (mouse [2]; [16]) was greater than 200 mg/kg/day. For the same molecule, the NEL (mouse [2]; [16]) was 100 mg/kg/day, the NOAEL (mouse [2]; [16]) was no less than 200 mg/kg/day and the LOAEL (mouse [2]; [17]) was greater than 200 mg/kg/day. The NOAEL (mouse [2]; [17]) was no less than 200 mg/kg/day, the LEL (mouse [2]; [18]) was 50 mg/kg/day and the NEL (mouse [2]; [18]) was less than 50 mg/kg/day. It also gave an LEL (mouse [2]; [19]) of 50 mg/kg/day, an NEL (mouse [2]; [19]) of less than 50 mg/kg/day and an LOAEL (mouse [2]; [20]) greater than 200 mg/kg/day. For the same molecule, the NOAEL (mouse [2]; [20]) was no less than 200 mg/kg/day, the LEL (mouse [3]) was 100 mg/kg/day and the LOAEL (mouse [3]) was greater than 400 mg/kg/day. It also gave an NEL (mouse [3]) of less than 100 mg/kg/day, an NOAEL (mouse [3]) of no less than 400 mg/kg/day and an LEL (mouse [4]; [21]) of 50 mg/kg/day. It also gave an NEL (mouse [4]; [21]) of less than 50 mg/kg/day, an LOAEL (mouse [4]; systemic / in life observation / body weight / body weight gain + systemic / pathology microscopic / bone marrow / atrophy) of 800 mg/kg/day and an NOAEL (mouse [4]; systemic / in life observation / body weight / body weight gain + systemic / pathology microscopic / bone marrow / atrophy + systemic / …) of 200 mg/kg/day. For the same molecule, the LOAEL (mouse [5]; [22]) was greater than 400 mg/kg/day, the NOAEL (mouse [5]; [22]) was no less than 400 mg/kg/day and the LEL (mouse [5]; [23]) was 100 mg/kg/day. The NEL (mouse [5]; [23]) was less than 100 mg/kg/day, the NEL (mouse [6]; reproductive / reproductive performance / fertility / fertility) was 100 mg/kg/day and the LEL (mouse [6]; [24]) was 200 mg/kg/day. The LOAEL (mouse [6]; [24]) was greater than 300 mg/kg/day, the NOAEL (mouse [6]; [24]) was no less than 300 mg/kg/day and the LOAEL (mouse [7]; [25]) was greater than 400 mg/kg/day. For the same molecule, the NOAEL (mouse [7]; [25]) was no less than 400 mg/kg/day, the LEL (mouse [7]; [26]) was 100 mg/kg/day and the NEL (mouse [7]; [26]) was less than 100 mg/kg/day. For the same molecule, the LEL (mouse [7]; group: reproductive, reproductive / reproductive performance / pregnancy / pregnancy) was 200 mg/kg/day, the NEL (mouse [7]; group: reproductive, reproductive / reproductive performance / pregnancy / pregnancy + reproductive / reproductive performance / resorptions / resorptions) was 100 mg/kg/day and the LOAEL (mouse [7]; [27]) was greater than 400 mg/kg/day. It also gave an NOAEL (mouse [7]; [27]) of no less than 400 mg/kg/day, an LEL (mouse [8]; [28]) of 100 mg/kg/day and an LOAEL (mouse [8]; [28]) greater than 400 mg/kg/day. For the same molecule, the NEL (mouse [8]; [28]) was less than 100 mg/kg/day, the NOAEL (mouse [8]; [28]) was no less than 400 mg/kg/day and the LEL (mouse [8]; [29]) was 400 mg/kg/day. For the same molecule, the LOAEL (mouse [8]; [29]) was greater than 400 mg/kg/day, the NEL (mouse [8]; [29]) was 200 mg/kg/day and the NOAEL (mouse [8]; [29]) was no less than 400 mg/kg/day.
`CC1=CC(=O)CC(C)(C)C1` [Isophorone] showed an LOAEL (rat [9]; [30]) of 250 mg/kg/day, an NOAEL (rat [9]; [30]) of less than 250 mg/kg/day and an LEL (rat [9]; [31]) of 250 mg/kg/day. For the same molecule, the NEL (rat [9]; [31]) was less than 250 mg/kg/day, the LEL (mouse [10]; [32]) was 1000 mg/kg/day and the NEL (mouse [10]; [32]) was 500 mg/kg/day. The LOAEL (mouse [10]; [33]) was greater than 1000 mg/kg/day, the NOAEL (mouse [10]; [33]) was no less than 1000 mg/kg/day and the LOAEL (rat [11]; [34]) was 1000 mg/kg/day. The LEL (rat [11]; [35]) was 125 mg/kg/day, the NEL (rat [11]; [35]) was less than 125 mg/kg/day and the NOAEL (rat [11]; systemic / in life observation / clinical signs / lethargy + systemic / in life observation / body weight / body weight + systemic / in life…) was 500 mg/kg/day. For the same molecule, the LEL (mouse [12]) was 250 mg/kg/day, the LOAEL (mouse [12]) was 250 mg/kg/day and the NEL (mouse [12]) was less than 250 mg/kg/day. For the same molecule, the NOAEL (mouse [12]) was less than 250 mg/kg/day, the LEL (mouse [13]; [34]) was 250 mg/kg/day and the LOAEL (mouse [13]; [34]) was 250 mg/kg/day. The NEL (mouse [13]; [36]) was 125 mg/kg/day, the NOAEL (mouse [13]; [36]) was 125 mg/kg/day and the LEL (rat [14]) was 1000 mg/kg/day. For the same molecule, the LOAEL (rat [14]) was greater than 1000 mg/kg/day, the NEL (rat [14]) was 500 mg/kg/day and the NOAEL (rat [14]) was no less than 1000 mg/kg/day.
